Patent US10131652B2, “Pyrimidinyloxy benzene derivatives as herbicides” (E. I. DU PONT DE NEMOURS AND COMPANY, priority 2014, dated 2018)

What was measured:
Format in all cases: in vivo
kochia (Kochia scoparia) = assay: Test B pre-/postemergence plant response
Method in brief: (§1)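 Visual injury rating, 0 (no effect) to 100 (complete control), vs untreated controls after ~10 d greenhouse. Pre: directed soil spray after planting in loam/sand. Post: plants 2–10 cm, 1–2 leaf stage. Compound in non-phytotoxic solvent plus surfactant.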

[1] = system: ragweed (common ragweed, Ambrosia elatior); assay: Test B pre-/postemergence plant response
Method in brief: as §1

[2] = system: Italian ryegrass (Lolium multiflorum); assay: Test B pre-/postemergence plant response
Method in brief: as §1

[3] = system: blackgrass (Alopecurus myosuroides); assay: Test D pre-/postemergence plant response
Method in brief: (§2)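 Greenhouse herbicidal response, both pre- and postemergence applications, with solvent/surfactant formulation. Postemergence plants were at 1- to 4-leaf stage. Visual scores 0–100 relative to controls, taken 13 to 15 days later.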

[4] = system: oilseed rape (Brassica napus); assay: Test D pre-/postemergence plant response
Method in brief: as §2

[5] = system: barnyardgrass (Echinochloa crus-galli); assay: Test D pre-/postemergence plant response
Method in brief: as §2

[6] = system: velvetleaf (Abutilon theophrasti); assay: Test D pre-/postemergence plant response
Method in brief: as §2

[7] = system: pigweed (Amaranthus retroflexus); assay: Test D pre-/postemergence plant response
Method in brief: as §2

[8] = system: johnsongrass (Sorghum halepense); assay: Test D pre-/postemergence plant response
Method in brief: as §2

[9] = system: giant foxtail (Setaria faberii); assay: Test D pre-/postemergence plant response
Method in brief: as §2

rice (Oryza sativa) = assay: Test C flooded paddy test plant response; conditions: Flood, 250 g ai/ha; scale of 0 to 100 where 0 is no effect and 100 is complete control; 13 to 15 days
Method in brief: (§3)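 Visual injury ratings (0, no effect; 100, complete control) were assigned after 13 to 15 days in a greenhouse, comparing treated plants with controls. Compounds had been added straight into paddy water over 2-leaf-stage plants flooded to 3 cm.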

[10] = system: small-flower umbrella sedge (Cyperus difformis); assay: Test C flooded paddy test plant response; conditions: Flood, 250 g ai/ha; scale of 0 to 100 where 0 is no effect and 100 is complete control; 13 to 15 days
Method in brief: as §3

[11] = system: barnyardgrass (Echinochloa crus-galli); assay: Test C flooded paddy test plant response; conditions: Flood, 250 g ai/ha; scale of 0 to 100 where 0 is no effect and 100 is complete control; 13 to 15 days
Method in brief: as §3

[12] = system: ducksalad (Heteranthera limosa); assay: Test C flooded paddy test plant response; conditions: Flood, 250 g ai/ha; scale of 0 to 100 where 0 is no effect and 100 is complete control; 13 to 15 days
Method in brief: as §3

[13] = 125 g ai/ha, postemergence, 0 to 100 scale, 0 no effect, 100 complete control
[14] = Postemergence, 500 g ai/ha, 0 to 100 scale (0 no effect, 100 complete control)
[15] = Preemergence, 125 g ai/ha, 0 to 100 scale (0 no effect, 100 complete control)
[16] = Preemergence, 500 g ai/ha, 0 to 100 scale where 0 is no effect and 100 is complete control
[17] = Postemergence, 16 g ai/ha, scale 0 to 100 (0 no effect, 100 complete control)
[18] = Postemergence, 31 g ai/ha, scale 0 to 100 (0 no effect, 100 complete control)
[19] = Postemergence, 62 g ai/ha, scale 0 to 100, 0 no effect, 100 complete control
[20] = Preemergence, 4 g ai/ha, scale 0 to 100 (0 no effect, 100 complete control)
[21] = Preemergence, 8 g ai/ha, scale 0 to 100 (0 no effect, 100 complete control)
[22] = Preemergence, 16 g ai/ha, scale 0 to 100 (0 no effect, 100 complete control)
[23] = Preemergence, 31 g ai/ha, scale 0 to 100 (0 no effect, 100 complete control)

FC(F)(F)c1cc(-c2c(I)cccc2Oc2ncc(Cl)cn2)no1 [Compound 156]
45: Plant response rating, Oilseed Rape [4, 19]
35: Plant response rating, Foxtail, Giant [9, 19]
10: Plant response rating, Johnsongrass [8, 19] | Foxtail, Giant plant response rating [9, 18]
60: Pigweed plant response rating [7, 18]
25: Plant response rating, Velvetleaf [6, 19]
5: Blackgrass plant response rating [3, 18] | Plant response rating, Blackgrass [3, 19] | Plant response rating (scale 0 to 100), Oilseed Rape ([4]; Postemergence, 8 g ai/ha) | Plant response rating, Barnyardgrass [5, 19] | Johnsongrass plant response rating [8, 18] | Foxtail, Giant plant response rating [9, 17]
75: Plant response rating, Pigweed [7, 19]
90: Plant response rating, Kochia (kochia (Kochia scoparia); [13]) | Plant response rating, Kochia (kochia (Kochia scoparia); [14])
0: Ragweed plant response rating [1, 15] | Plant response rating, Ragweed [1, 16] | Ryegrass, Italian plant response rating [2, 15] | Plant response rating, Ryegrass, Italian [2, 16] | Plant response rating (scale 0 to 100), Blackgrass ([3]; Postemergence, 8 g ai/ha) | Blackgrass plant response rating [3, 17] | Plant response rating (scale 0 to 100), Barnyardgrass ([5]; Postemergence, 8 g ai/ha) | Barnyardgrass plant response rating [5, 17] | Barnyardgrass plant response rating [5, 18] | Plant response rating (scale 0 to 100), Velvetleaf ([6]; Postemergence, 8 g ai/ha) | Plant response rating (scale 0 to 100), Johnsongrass ([8]; Postemergence, 8 g ai/ha) | Plant response rating (scale 0 to 100), Foxtail, Giant ([9]; Postemergence, 8 g ai/ha) | Rice plant response rating (rice (Oryza sativa)) | Sedge, Umbrella plant response rating [10] | Barnyardgrass plant response rating [11] | Ducksalad plant response rating [12]
70: Plant response rating, Ryegrass, Italian [2, 14]
30: Plant response rating, Ryegrass, Italian [2, 13]
20: Kochia plant response rating (kochia (Kochia scoparia); [15]) | Plant response rating, Ragweed [1, 13]
40: Plant response rating, Kochia (kochia (Kochia scoparia); [16]) | Plant response rating, Ragweed [1, 14] | Oilseed Rape plant response rating [4, 18]
15: Velvetleaf plant response rating [6, 18] | Plant response rating (scale 0 to 100), Pigweed ([7]; Postemergence, 8 g ai/ha)

N#Cc1cccc(Oc2ncc(Cl)cn2)c1-c1cc(C(F)(F)F)on1 [Compound 157]
25: Oilseed Rape plant response rating [4, 18]
10: Plant response rating, Ragweed [1, 13]
35: Plant response rating (scale 0 to 100), Pigweed ([7]; Postemergence, 4 g ai/ha)
40: Plant response rating, Oilseed Rape [4, 22] | Velvetleaf plant response rating [6, 18] | Foxtail, Giant plant response rating [9, 17] | Sedge, Umbrella plant response rating [10] | Ducksalad plant response rating [12]
50: Plant response rating, Ragweed [1, 14]
70: Plant response rating, Ragweed [1, 16] | Plant response rating (scale 0 to 100), Pigweed ([7]; Postemergence, 8 g ai/ha)
90: Plant response rating, Kochia (kochia (Kochia scoparia); [13]) | Plant response rating, Ryegrass, Italian [2, 13] | Plant response rating, Ryegrass, Italian [2, 16]
45: Plant response rating, Velvetleaf [6, 22]
65: Pigweed plant response rating [7, 18]
100: Plant response rating, Kochia (kochia (Kochia scoparia); [14]) | Kochia plant response rating (kochia (Kochia scoparia); [15]) | Plant response rating, Kochia (kochia (Kochia scoparia); [16]) | Plant response rating, Ryegrass, Italian [2, 14] | Plant response rating, Oilseed Rape [4, 23] | Plant response rating, Pigweed [7, 21] | Plant response rating, Pigweed [7, 22] | Plant response rating, Pigweed [7, 23]
75: Plant response rating, Velvetleaf [6, 23]
20: Ragweed plant response rating [1, 15] | Ryegrass, Italian plant response rating [2, 15] | Plant response rating, Pigweed [7, 20] | Plant response rating (scale 0 to 100), Foxtail, Giant ([9]; Postemergence, 8 g ai/ha) | Foxtail, Giant plant response rating [9, 18] | Plant response rating, Foxtail, Giant [9, 23]
0: Plant response rating (scale 0 to 100), Blackgrass ([3]; Postemergence, 4 g ai/ha) | Plant response rating (scale 0 to 100), Blackgrass ([3]; Postemergence, 8 g ai/ha) | Plant response rating, Blackgrass [3, 20] | Plant response rating, Blackgrass [3, 21] | Plant response rating, Blackgrass [3, 22] | Plant response rating (scale 0 to 100), Oilseed Rape ([4]; Postemergence, 4 g ai/ha) | Plant response rating, Oilseed Rape [4, 20] | Plant response rating, Oilseed Rape [4, 21] | Plant response rating (scale 0 to 100), Barnyardgrass ([5]; Postemergence, 4 g ai/ha) | Plant response rating (scale 0 to 100), Barnyardgrass ([5]; Postemergence, 8 g ai/ha) | Plant response rating, Barnyardgrass [5, 20] | Plant response rating, Barnyardgrass [5, 21] | Plant response rating, Barnyardgrass [5, 22] | Plant response rating, Velvetleaf [6, 20] | Plant response rating (scale 0 to 100), Johnsongrass ([8]; Postemergence, 4 g ai/ha) | Plant response rating (scale 0 to 100), Johnsongrass ([8]; Postemergence, 8 g ai/ha) | Johnsongrass plant response rating [8, 18] | Plant response rating, Johnsongrass [8, 20] | Plant response rating, Johnsongrass [8, 21] | Plant response rating, Johnsongrass [8, 22] | Plant response rating (scale 0 to 100), Foxtail, Giant ([9]; Postemergence, 4 g ai/ha) | Plant response rating, Foxtail, Giant [9, 20] | Plant response rating, Foxtail, Giant [9, 21] | Plant response rating, Foxtail, Giant [9, 22] | Rice plant response rating (rice (Oryza sativa)) | Barnyardgrass plant response rating [11]
5: Blackgrass plant response rating [3, 17] | Blackgrass plant response rating [3, 18] | Plant response rating, Blackgrass [3, 23] | Plant response rating (scale 0 to 100), Oilseed Rape ([4]; Postemergence, 8 g ai/ha) | Barnyardgrass plant response rating [5, 17] | Barnyardgrass plant response rating [5, 18] | Plant response rating, Barnyardgrass [5, 23] | Plant response rating (scale 0 to 100), Velvetleaf ([6]; Postemergence, 4 g ai/ha) | Plant response rating (scale 0 to 100), Velvetleaf ([6]; Postemergence, 8 g ai/ha) | Plant response rating, Velvetleaf [6, 21] | Plant response rating, Johnsongrass [8, 23]
